Assay [1] concerns KP-1 cells. In words: Mouse model with grown cancer, KP-1. The assay is classed as in vivo, mice (KSN Slc, female). Conditions: KP-1 tumor; oral, 2 weeks; relative tumor volume treated/control. The protocol: (§1) 1×10^7 KP-1 or Colo320DM cells/0.1 ml PBS/mouse were inoculated subcutaneously to mice (KSN Slc, female). From 1 to 2 weeks after the transplantation, 0.5% aqueous methyl cellulose solution, E7820 (0.5% methyl cellulose suspension: 50, 100, 200 mg/kg: twice a day), or ZD6474 (0.5% methyl cellulose suspension: 50, 100 mg/kg: once a day), or both of E7820 (50, 100, 200 mg/kg: twice a day) and ZD6474 (50, 100 mg/kg: once a day), were orally administered for 2 weeks. The transplanted tumor volume was measured twice every week, and the relative tumor volume was calculated according to the following equation: Relative tumor volume=tumor volume on the day after last administration/tumor volume at first administration.
(§2) The antitumor effect was expressed in T/C % (T/C %=relative tumor volume in the chemical administration group/relative tumor volume in the control group).

Assay [2] has as its system KP-1 or Colo320DM cells. In words: Mouse model with grown cancer (FIG. 1, tumor not given). It counts as in vivo, mice (KSN Slc, female). Conditions: oral, 2 weeks. The protocol:
as §1, §2

Assay [3] has as its system Colo320DM cells. In words: Mouse model with grown cancer, Colo320DM. The settings on record: Colo320DM tumor; oral, 2 weeks; relative tumor volume treated/control. It counts as in vivo, mice (KSN Slc, female). The protocol:
as §1, §2

Assay [4] deals with Human umbilical vein endothelial cells. In words: Proliferation of FGF-induced endothelial cells, combination with E7820. It counts as cell-based. The settings on record: inhibition rate (fa) 0.5, 20 ng/ml bFGF; for Combination index (CI): formula of Chou et al. As to the method:
On the next day, ½ serial dilutions of FGF receptor kinase inhibitors (PD166866, PD173074) or FGF antibody as FGF inhibitors, ½ serial dilutions of E7820, and dilutions containing two of the above substances were prepared respectively, and each dilution was added in a volume of 100 μl/well to each well containing the cultured human umbilical vein endothelial cells, and the cells were further cultured.
(§3) After 3 days, 5 ml cell counting kit solution (Wako Pure Chemical Industries, Ltd.) were diluted with PBS to give 40 ml dilution, and 50 μl of this dilution were added to each well, then incubated at 37° C. for 3 to 4 hours and measured for its absorbance at 415 nm by a plate reader (Corona Denki Co., Ltd.).

Assay [5] deals with Human umbilical vein endothelial cells (HUVEC). The assay can be described thus: Tube formation of endothelial cell, FGF inhibitor wells, combination with E7820. The settings on record: inhibition rate (fa) 0.5, 10 ng/ml EGF and 20 ng/ml bFGF. The assay is classed as cell-based.
Description: (§4) 400 μl of type I collagen gel (Nitta Gelatin) were added onto each well of a 24-well plate (FALCON) and gelled at 37° C. in a CO2 incubator for 40 min. A serum-free medium (human endothelial-SFM basal growth medium; GIBCO BRL) containing 20 ng/ml EGF (GIBCO BRL) was prepared, and 200 μl of this medium solution were added onto each well containing the type I collagen gel. Human umbilical vein endothelial cells (HUVEC) were suspended in a serum-free medium (human endothelial-SFM basal growth medium; GIBCO BRL) to prepare a cell suspension at a density of 5×10^5 cells/ml. 200 μl of this suspension were put into each well containing the type I collagen gel and serum-free medium, and cultured overnight.
(§5) After incubation, […] of 3.3 mg/ml MTT (SIGMA) were added into each well and reacted at 37° C. in a CO2 incubator for 3 hours to stain the cells. Under a microscope (SZX12 manufactured by OLYMPUS), an image of a tube formed by HUVEC was incorporated (M-3204C manufactured by OLYMPUS). The tube length in the incorporated image was measured by image analysis software Mac SCOPE 2.56 (manufactured by MITANI) to quantify the tube formation of HUVEC.
The subject of assay [6] is Human umbilical vein endothelial cells. In words: Proliferation of VEGF-induced endothelial cells, combination with E7820. It counts as cell-based. Conditions: inhibition rate (fa) 0.5, 20 ng/ml VEGF; for Combination index (CI): formula of Chou et al. As to the method:
On the next day, ½ serial dilutions of VEGF receptor kinase inhibitors (ZD6474, ZD4190, SU5416, SU6668) or VEGF antibody as VEGF inhibitors, ½ serial dilutions of VEGF antibody, ½ serial dilutions of E7820, and dilutions containing two of the above substances were prepared respectively, and each dilution was added in a volume of 100 μl/well to each well containing the cultured human umbilical vein endothelial cells, and the cells were further cultured.
as §3

Assay [7] deals with Human umbilical vein endothelial cells (HUVEC). The assay can be described thus: Tube formation of endothelial cell, VEGF inhibitor wells, combination with E7820.
Description: as §4, §5

With `Cc1ccc(NS(=O)(=O)c2cccc(C#N)c2)c2[nH]cc(C#N)c12` [E7820], the T/C % in assay [1] is reported as 83%; in assay [3], 60%. For the same compound, in assay [2], the “Tumor growth / antitumor effect (FIG. 1)” value is given as “tumor growth was inhibited”.

Turning to `COc1cc(OC)cc(-c2cc3cnc(N)nc3nc2NC(=O)NC(C)(C)C)c1` [PD166866], the Combination effect entry in assay [4] and in assay [5] was “Synergistic” in each case. In assay [4], the “Combination index (CI)” value was 0.5.

In the case of `CCN(CC)CCCCNc1ncc2cc(-c3cc(OC)cc(OC)c3)c(NC(=O)NC(C)(C)C)nc2n1` [PD173074], in assay [4], the Combination effect entry is “Synergistic” and the “Combination index (CI)” value came out at 0.4.

Turning to `Cc1cc(C)c(/C=C2\C(=O)Nc3ccccc32)[nH]1` [SU5416], in assay [6], the Combination effect result was “Synergistic” and the “Combination index (CI)” value was determined as 0.4.

On to `Cc1[nH]c(/C=C2\C(=O)Nc3ccccc32)c(C)c1CCC(=O)O` [SU6668], for which, in assay [6], the Combination effect entry was “Synergistic” and the “Combination index (CI)” value was found to be 0.5.

As to `COc1cc2c(Nc3ccc(Br)cc3F)ncnc2cc1OCCn1ccnn1` [ZD4190], in assay [6], the Combination effect result was “Synergistic” and the “Combination index (CI)” value is reported as 0.3.

For `COc1cc2c(Nc3ccc(Br)cc3F)ncnc2cc1OCC1CCN(C)CC1` [ZD6474], the T/C % is reported as 47% in assay [1] and 56% in assay [3]. Besides, the Combination effect result in assay [6] is on record as “Synergistic”; in assay [7] (inhibition rate (fa) 0.5, 10 ng/ml EGF and 20 ng/ml VEGF), “Synergistic”. Moreover, the “Combination index (CI)” value in assay [6] is 0.4; in assay [7] (inhibition rate (fa) 0.5, tube length, 10 ng/ml EGF and 20 ng/ml VEGF), 0.4. Besides, in assay [2], the “Tumor growth / antitumor effect (FIG. 1)” value is given as “tumor growth was inhibited”.

(Values after patent US20090269352A1, “ANTITUMOR AGENT COMPRISING SULFONAMIDE-CONTAINING HETEROCYCLIC COMPOUND COMBINED WITH AN ANGIOGENESIS INHIBITOR” (priority 2002, published 2009).)
